Test results from US7718815B2, “Alpha-aminoamide derivatives useful in the treatment of lower urinary tract disorders” (Newron Pharmaceuticals S.p.A., priority 2004, dated 2010).

Experiments:
[1] = test system: cyclophosphamide (CYP) irritated bladders of rats; experiment: Intermediate bladder irritation by cyclophosphamide (CYP) in rats (continuous infusion cystometrogram); format: in vivo, rat (female Sprague Dawley); details: 0.1 to 10 mg/kg/iv, CYP 150 mg/kg/ip one day before
Method: (§1) The effect of a representative compound of formula I, (S)-(+)-2-[4-(2-fluorobenzyloxy)-benzylamino]-propanamide (NW-1029), on voiding function was tested in the following rat models of “Acute bladder irritation by acetic acid” and “Intermediate bladder irritation by cyclophosphamide (CYP)”.
(§2) Continuous infusion cystometrograms (0.04 ml/min) were used to measure intercontraction intervals (ICIs) which provide an estimate of bladder capacity. Cumulative dose response curves were obtained in each animal by administering intravenously increasing doses of the drug.
Experiments were performed using both adult awake and anesthetized female Sprague Dawley rats (170-200 g).
Chemical cystitis was induced by CYP, which is metabolized to acrolein, an irritant eliminated in the urine. CYP (150 mg/kg/ip) was administered one day before the experiment.
NW-1029 was administered in a dose range from 0.1 to 10 mg/kg/iv.

[2] = test system: acetic acid (AA) irritated bladders of rats; experiment: Acute bladder irritation by acetic acid in rats (continuous infusion cystometrogram); format: in vivo, rat (female Sprague Dawley); details: anesthetized rats; 3, 10 and 30 mg/kg, intravenous cumulative doses; intravesical infusion of 0.15% acetic acid; FIG. 1
Method: as §1, §2
Experiments were performed using adult anesthetized female Sprague Dawley rats (170-200 g).
A catheter (PE-50) was inserted via a midline abdominal incision into the bladder through the bladder dome, and then intravesical pressure was measured to monitor bladder activity during continuous infusion of 0.15% of acetic acid. Intercontraction intervals (ICIs), maximal contraction pressure, and pressure thresholds inducing reflex bladder contraction were measured before and after intravesical infusion of acetic acid in NW-1029 treated rats.

Structure (SMILES): C[C@H](NCc1ccc(OCc2ccccc2F)cc1)C(N)=O [NW-1029, (S)-(+)-2-[4-(2-fluorobenzyloxy)-benzylamino]-propanamide]
- intercontraction interval (ICI) ([1]; anesthetized rats, FIG. 3): significantly increases the ICI
- intercontraction interval (ICI) ([1]; awake rats, FIG. 2): significantly increases the ICI
- intercontraction interval (ICI), reversal of AA-induced reduction [2]: significant reversal of the AA-induced reduction in the ICI
